Reference: patent US20070054884A1 (priority 2005, published 2007)
Values after ≈ are worked out from the molar mass of the structure shown.

Key:
B. cereus = assay: Minimum Inhibitory Concentration (MIC), broth dilution method; format: cell-based; conditions: Bacillus cereus, read-out: MIC B. cereus
Method: (§1) Minimum Inhibitory Concentration (MIC), Broth Dilution Method:
(§2) The compounds of the present invention were tested against selected Gram positive and Gram negative organisms using standard microtitration techniques well known to those skilled in the art. Cultures of bacteria were initially applied by streaking a loopful onto agar plates under the appropriate conditions. For example, bacterial stocks are streaked for isolation of single colonies onto chocolate agar and then incubated for 18 hours at 35-37° C. in a 5% CO2 incubator. Five to ten colonies were picked from the chocolate agar plate for subculture to Brain-Heart infusion (BHI) broth, Mueller Hinton broth, or BHI containing 4% serum, and incubated under the appropriate conditions. The ability of the test compound to act as an antimicrobial was determined by the ability of dilutions of the test substance to inhibit bacterial growth in vitro. The optical density of the culture of organisms in the presence of an active compound was compared to the optical density of the same organism grown without test compound. The activity of the compounds is described as either negative or the lowest concentration inhibiting growth (Minimum Inhibitory Concentration [MIC]).
(§3) The activity of selected compounds of the present invention against representative Gram positive and Gram negative bacteria are shown in the following Table 1.

S. aureus 29213 = assay: as above; format: cell-based; conditions: Staphylococcus aureus, 29213, read-out: MIC S. aureus 29213
Method: as §1, §2, §3

B.anthracis V770-NR1-R = assay: microbe, parasite or virus in culture; format: cell-based; conditions: Bacillus anthracis, V770NR1R, read-out: MIC B.anthracis V770-NR1-R
S. pneumoniae 11733 = assay: Minimum Inhibitory Concentration (MIC), broth dilution method; format: cell-based; conditions: Streptococcus pneumoniae, 11733, read-out: MIC S. pneumoniae 11733
Method: as §1, §2, §3

SMILES | MIC (B. cereus) | MIC (S. aureus 29213) | MIC (B.anthracis V770-NR1-R) | melting point | MIC (S. pneumoniae 11733)
O=C(Nc1cc(C(F)(F)F)cc(C(F)(F)F)c1)Nc1cc(Oc2ccc(Cl)cc2Cl)c(O)cc1Cl [Example 15, 1-(3,5-Bis-trifluoromethyl-phenyl)-3-[2-chloro-5-(2,4-dichloro-phenoxy)-4-hydroxy-phenyl]-urea] | 100 µg/mL (≈ 0.179 mM) | 4000 µg/mL (≈ 7.15 mM) | 800 µg/mL (≈ 1.43 mM) | – | –
O=C(O)c1cc(Oc2ccc(Cl)cc2Cl)c(O)cc1Cl | – | – | – | 192 to 196 °C | –
Oc1cc(Cl)c(NC(=S)Nc2ccc(F)cc2)cc1Oc1ccc(Cl)cc1Cl [Example 10, 1-[2-Chloro-5-(2,4-dichloro-phenoxy)-4-hydroxy-phenyl]-3-(4-fluoro-phenyl)-thiourea] | 400 µg/mL (≈ 0.874 mM) | 4000 µg/mL (≈ 8.74 mM) | 1600 µg/mL (≈ 3.5 mM) | 89 to 91 °C | 31300 µg/mL (≈ 68.4 mM)
Cc1cc(O)c(Oc2ccccc2C#N)cc1-n1cccc1 [Example 29, 2-(2-Hydroxy-4-methyl-5-pyrrol-1-yl-phenoxy)-benzonitrile] | 4000 µg/mL (≈ 13.8 mM) | 62500 µg/mL (≈ 215 mM) | – | 158 to 160 °C | 500 µg/mL (≈ 1.72 mM)
N#Cc1ccccc1Oc1cc(-n2cccc2)ccc1O [Example 18, 2-(2-Hydroxy-5-pyrrol-1-yl-phenoxy)-benzonitrile] | > 25000 µg/mL | 4000 µg/mL (≈ 14.5 mM) | > 25000 µg/mL | – | 4000 µg/mL (≈ 14.5 mM)
Oc1cc(Cl)c(NC(=S)Nc2cc(C(F)(F)F)cc(C(F)(F)F)c2)cc1Oc1ccc(Cl)cc1Cl [Example 16, 1-(3,5-Bis-trifluoromethyl-phenyl)-3-[2-chloro-5-(2,4-dichloro-phenoxy)-4-hydroxy-phenyl]-thiourea] | 100 µg/mL (≈ 0.174 mM) | 500 µg/mL (≈ 0.868 mM) | 200 µg/mL (≈ 0.347 mM) | – | –
Cc1cc(O)c(Oc2ccccc2C#N)cc1N1CCOCC1 [Example 31, 2-(2-Hydroxy-4-methyl-5-morpholin-4-yl-phenoxy)-benzonitrile] | 3100 µg/mL (≈ 9.99 mM) | 7900 µg/mL (≈ 25.5 mM) | 6200 µg/mL (≈ 20 mM) | – | 4000 µg/mL (≈ 12.9 mM)
Oc1cc(Cl)c(-c2cccs2)cc1Oc1ccc(Cl)cc1Cl [Example 3, 5-Chloro-2-(2,4-dichloro-phenoxy)-4-thiophen-2-yl-phenol] | 50 µg/mL (≈ 0.135 mM) | 60 µg/mL (≈ 0.161 mM) | 50 µg/mL (≈ 0.135 mM) | – | 10 µg/mL (≈ 0.0269 mM)
COc1ccc(NC(=S)Nc2cc(Oc3ccc(Cl)cc3Cl)c(O)cc2Cl)cc1 [Example 11, 1-[2-Chloro-5-(2,4-dichloro-phenoxy)-4-hydroxy-phenyl]-3-(4-methoxy-phenyl)-thiourea] | – | 7900 µg/mL (≈ 16.8 mM) | – | – | 31300 µg/mL (≈ 66.6 mM)
Oc1cc(Cl)c(N2CCOCC2)cc1Oc1ccc(Cl)cc1Cl [Example 1, 5-Chloro-2-(2,4-dichlorophenoxy)-4-morpholin-4-yl-phenol] | 800 µg/mL (≈ 2.14 mM) | 500 µg/mL (≈ 1.33 mM) | 1600 µg/mL (≈ 4.27 mM) | 187 to 188 °C | 1000 µg/mL (≈ 2.67 mM)
O=[N+]([O-])c1ccc(NC(=S)Nc2cc(Oc3ccc(Cl)cc3Cl)c(O)cc2Cl)cc1 [Example 13, 1-[2-Chloro-5-(2,4-dichloro-phenoxy)-4-hydroxy-phenyl]-3-(4-nitro-phenyl)-thiourea] | – | 1000 µg/mL (≈ 2.06 mM) | – | – | 15600 µg/mL (≈ 32.2 mM)
Oc1cc(Cl)c(-c2nnn[nH]2)cc1Oc1ccc(Cl)cc1Cl [Example 33, 5-Chloro-2-(2,4-dichloro-phenoxy)-4-(1H-tetrazol-5-yl)-phenol] | 6200 µg/mL (≈ 17.3 mM) | 200 µg/mL (≈ 0.559 mM) | 12500 µg/mL (≈ 35 mM) | 174 to 180 °C | –
CCOC(=O)NC(=S)Nc1ccc(O)c(Oc2ccccc2O)c1 [Example 9, 1-[4-Hydroxy-3-(2-hydroxy-phenoxy)-phenyl]-3-(ethylozycarbonyl)thiourea] | 12500 µg/mL (≈ 35.9 mM) | 31300 µg/mL (≈ 89.8 mM) | 3100 µg/mL (≈ 8.9 mM) | – | 62500 µg/mL (≈ 179 mM)
Cc1cc(O)c(Oc2ccccc2C#N)cc1-c1ccsc1 [Example 27, 2-(2-Hydroxy-4-methyl-5-thiophen-3-yl-phenoxy)-benzonitrile] | 800 µg/mL (≈ 2.6 mM) | 6200 µg/mL (≈ 20.2 mM) | 1600 µg/mL (≈ 5.21 mM) | – | > 25000 µg/mL
Cc1cc(C(=O)Nc2cc(Oc3ccc(Cl)cc3Cl)c(O)cc2Cl)no1 [Example 22, 5-Methyl-isoxazole-3-carboxylic acid [2-chloro-5-(2,4-dichloro-phenoxy)-4-hydroxy-phenyl]-amide] | – | 2000 µg/mL (≈ 4.84 mM) | – | – | 500 µg/mL (≈ 1.21 mM)
Cc1nnsc1C(=O)Nc1cc(Oc2ccc(Cl)cc2Cl)c(O)cc1Cl [Example 21, 4-Methyl-[1,2,3]thiadiazole-5-carboxylic acid [2-chloro-5-(2,4-dichloro-phenoxy)-4-hydroxy-phenyl]-amide] | – | 4000 µg/mL (≈ 9.29 mM) | – | – | 4000 µg/mL (≈ 9.29 mM)
